Reference: ChEMBL document CHEMBL4017469, “First insight into structure-activity relationships of selective meprin β inhibitors” (Bioorg Med Chem Lett, 2017)

Legend:
Meprin A subunit beta [1] = molecular target: T1, Meprin A subunit beta (Homo sapiens, UniProt Q16820); assay: Inhibition of recombinant human meprin beta expressed in yeast using Abz-YVAEAPK(Dnp)G-OH as substrate by fluorescence assay
T1 sequence (Q16820 whole entry): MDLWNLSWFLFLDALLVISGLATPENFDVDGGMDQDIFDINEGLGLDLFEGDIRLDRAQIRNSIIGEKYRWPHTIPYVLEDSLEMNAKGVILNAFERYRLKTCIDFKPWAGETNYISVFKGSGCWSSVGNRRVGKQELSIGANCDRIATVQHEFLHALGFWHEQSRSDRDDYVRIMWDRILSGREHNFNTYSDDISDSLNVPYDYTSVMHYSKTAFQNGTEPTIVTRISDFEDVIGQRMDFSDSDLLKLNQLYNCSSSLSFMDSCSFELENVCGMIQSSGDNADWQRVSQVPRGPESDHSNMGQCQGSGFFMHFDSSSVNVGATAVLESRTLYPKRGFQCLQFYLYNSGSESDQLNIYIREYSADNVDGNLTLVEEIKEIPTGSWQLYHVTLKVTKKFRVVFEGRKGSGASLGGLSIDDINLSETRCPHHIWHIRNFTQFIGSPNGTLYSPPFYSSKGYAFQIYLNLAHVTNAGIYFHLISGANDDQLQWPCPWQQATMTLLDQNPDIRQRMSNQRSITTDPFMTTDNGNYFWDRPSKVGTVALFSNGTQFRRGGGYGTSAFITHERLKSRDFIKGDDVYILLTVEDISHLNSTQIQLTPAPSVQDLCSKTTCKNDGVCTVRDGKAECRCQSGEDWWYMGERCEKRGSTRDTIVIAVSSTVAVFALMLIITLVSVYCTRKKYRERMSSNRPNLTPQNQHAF

Meprin A subunit beta [2] = molecular target: T1, Meprin A subunit beta; assay: Inhibition of recombinant human meprin beta expressed in baculovirus infected Sf9 insect cells using (MCA)-EDEDED-(K-epsilon-dnp) as substrate by fluorescence assay
[3] = molecular target: T2, Disintegrin and metalloproteinase domain-containing protein 10 (Homo sapiens, UniProt O14672); assay: Inhibition of recombinant human C-terminal His10-tagged ADAM10 expressed in baculovirus infected Sf21 cells using Abz-LANAVRSSSR-(DapDnp)-NH2 as substrate by fluorescence assay
T2 sequence (O14672 whole entry): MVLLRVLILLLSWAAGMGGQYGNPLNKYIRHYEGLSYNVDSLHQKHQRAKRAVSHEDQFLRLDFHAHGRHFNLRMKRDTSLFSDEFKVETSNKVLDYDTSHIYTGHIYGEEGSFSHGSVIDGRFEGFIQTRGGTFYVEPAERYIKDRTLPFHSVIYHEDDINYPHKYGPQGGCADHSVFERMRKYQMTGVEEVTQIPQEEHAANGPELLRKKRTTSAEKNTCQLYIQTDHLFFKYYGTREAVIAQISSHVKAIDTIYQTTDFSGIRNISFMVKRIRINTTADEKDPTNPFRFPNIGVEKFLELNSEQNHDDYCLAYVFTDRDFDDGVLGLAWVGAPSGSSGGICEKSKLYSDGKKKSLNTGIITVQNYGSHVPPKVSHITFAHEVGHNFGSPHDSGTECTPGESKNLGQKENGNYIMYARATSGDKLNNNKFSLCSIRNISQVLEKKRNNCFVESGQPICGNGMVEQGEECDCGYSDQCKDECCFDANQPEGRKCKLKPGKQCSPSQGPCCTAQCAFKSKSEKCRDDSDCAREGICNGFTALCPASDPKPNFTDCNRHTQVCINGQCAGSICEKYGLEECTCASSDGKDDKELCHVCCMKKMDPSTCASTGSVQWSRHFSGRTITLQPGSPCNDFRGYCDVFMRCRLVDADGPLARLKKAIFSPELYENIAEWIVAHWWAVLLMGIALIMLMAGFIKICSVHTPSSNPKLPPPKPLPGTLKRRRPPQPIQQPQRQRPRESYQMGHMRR

Homo sapiens [4] = species: Homo sapiens; assay: Selectivity ratio of IC50 for recombinant human meprin alpha expressed in S2 insect cells to IC50 for recombinant human meprin beta expressed in yeast
Collagenase 3 [5] = molecular target: T3, Collagenase 3 (Homo sapiens, UniProt P45452); assay: Inhibition of APMA-activated recombinant human MMP13 expressed in mouse NS0 cells using Mca-PLGL-(DapDnp)-AR-NH2 as substrate by fluorescence assay
[6] = molecular target: T4, Matrix metalloproteinase-9 (Homo sapiens, UniProt P14780); assay: Inhibition of APMA-activated recombinant human MMP9 expressed in CHO cells using Mca-PLGL-(DapDnp)-AR-NH2 as substrate by fluorescence assay
[7] = molecular target: T5, 72 kDa type IV collagenase (Homo sapiens, UniProt P08253); assay: Inhibition of APMA-activated recombinant human MMP2 expressed in CHO cells using Mca-PLGL-(DapDnp)-AR-NH2 as substrate by fluorescence assay
Homo sapiens [8] = species: Homo sapiens; assay: Selectivity ratio of IC50 for recombinant human C-terminal His10-tagged ADAM10 expressed in baculovirus infected Sf21 cells to IC50 for recombinant human meprin beta expressed in yeast
Meprin A subunit alpha = molecular target: T6, Meprin A subunit alpha (Homo sapiens, UniProt Q16819); assay: Inhibition of recombinant human meprin alpha expressed in S2 insect cells using Abz-YVADAPK(Dnp)G-OH as substrate by fluorescence assay
T6 sequence (Q16819 whole entry): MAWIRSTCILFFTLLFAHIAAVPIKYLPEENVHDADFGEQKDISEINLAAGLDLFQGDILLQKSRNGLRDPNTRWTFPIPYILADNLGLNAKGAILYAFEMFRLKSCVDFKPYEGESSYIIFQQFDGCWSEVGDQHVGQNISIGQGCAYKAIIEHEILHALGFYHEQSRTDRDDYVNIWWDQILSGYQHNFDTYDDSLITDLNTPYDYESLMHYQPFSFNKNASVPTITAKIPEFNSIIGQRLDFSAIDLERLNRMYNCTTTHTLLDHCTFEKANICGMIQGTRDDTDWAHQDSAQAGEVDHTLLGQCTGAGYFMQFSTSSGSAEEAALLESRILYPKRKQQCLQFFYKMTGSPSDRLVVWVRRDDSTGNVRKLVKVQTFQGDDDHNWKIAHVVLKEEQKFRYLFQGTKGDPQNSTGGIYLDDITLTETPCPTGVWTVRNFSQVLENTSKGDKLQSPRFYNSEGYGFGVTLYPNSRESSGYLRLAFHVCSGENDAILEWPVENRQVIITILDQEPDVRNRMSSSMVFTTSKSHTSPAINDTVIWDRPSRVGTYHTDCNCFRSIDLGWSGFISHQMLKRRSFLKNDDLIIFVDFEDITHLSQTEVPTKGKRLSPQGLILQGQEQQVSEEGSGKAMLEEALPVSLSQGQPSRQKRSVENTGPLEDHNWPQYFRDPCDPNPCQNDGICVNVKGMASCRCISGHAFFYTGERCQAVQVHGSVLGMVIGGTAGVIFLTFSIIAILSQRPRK

[9] = molecular target: T7, Disintegrin and metalloproteinase domain-containing protein 17 (Homo sapiens, UniProt P78536); assay: Inhibition of recombinant human C-terminal His6-tagged ADAM17 expressed in baculovirus infected Sf21 cells using Abz-LANAVRSSSR-(DapDnp)-NH2 as substrate by fluorescence assay
Meprin A subunit beta [10] = molecular target: T1, Meprin A subunit beta; assay: Inhibition of human meprin beta expressed in baculovirus infected BTI-TN-5B1-4 insect cells using N-benzoyl-L-tyrosylp-aminobenzoic acid as substrate
[11] = molecular target: T4, Matrix metalloproteinase-9; assay: Inhibition of APMA-activated recombinant human MMP9 expressed in CHO cells at 200 uM using Mca-PLGL-(DapDnp)-AR-NH2 as substrate by fluorescence assay
Homo sapiens [12] = species: Homo sapiens; assay: Selectivity ratio of IC50 APMA-activated recombinant human MMP2 expressed in CHO cells to IC50 for recombinant human meprin beta expressed in yeast; type: cell-based
Collagenase 3 [13] = molecular target: T3, Collagenase 3; assay: Inhibition of APMA-activated recombinant human MMP13 expressed in mouse NS0 cells at 200 uM using Mca-PLGL-(DapDnp)-AR-NH2 as substrate by fluorescence assay
[14] = molecular target: T5, 72 kDa type IV collagenase; assay: Inhibition of APMA-activated recombinant human MMP2 expressed in CHO cells at 200 uM using Mca-PLGL-(DapDnp)-AR-NH2 as substrate by fluorescence assay
[15] = molecular target: T2, Disintegrin and metalloproteinase domain-containing protein 10; assay: Inhibition of recombinant human C-terminal His10-tagged ADAM10 expressed in baculovirus infected Sf21 cells at 200 uM using Abz-LANAVRSSSR-(DapDnp)-NH2 as substrate by fluorescence assay
[16] = molecular target: T7, Disintegrin and metalloproteinase domain-containing protein 17; assay: Inhibition of recombinant human C-terminal His6-tagged ADAM17 expressed in baculovirus infected Sf21 cells at 200 uM using Abz-LANAVRSSSR-(DapDnp)-NH2 as substrate by fluorescence assay

T5 sequence (P08253 whole entry): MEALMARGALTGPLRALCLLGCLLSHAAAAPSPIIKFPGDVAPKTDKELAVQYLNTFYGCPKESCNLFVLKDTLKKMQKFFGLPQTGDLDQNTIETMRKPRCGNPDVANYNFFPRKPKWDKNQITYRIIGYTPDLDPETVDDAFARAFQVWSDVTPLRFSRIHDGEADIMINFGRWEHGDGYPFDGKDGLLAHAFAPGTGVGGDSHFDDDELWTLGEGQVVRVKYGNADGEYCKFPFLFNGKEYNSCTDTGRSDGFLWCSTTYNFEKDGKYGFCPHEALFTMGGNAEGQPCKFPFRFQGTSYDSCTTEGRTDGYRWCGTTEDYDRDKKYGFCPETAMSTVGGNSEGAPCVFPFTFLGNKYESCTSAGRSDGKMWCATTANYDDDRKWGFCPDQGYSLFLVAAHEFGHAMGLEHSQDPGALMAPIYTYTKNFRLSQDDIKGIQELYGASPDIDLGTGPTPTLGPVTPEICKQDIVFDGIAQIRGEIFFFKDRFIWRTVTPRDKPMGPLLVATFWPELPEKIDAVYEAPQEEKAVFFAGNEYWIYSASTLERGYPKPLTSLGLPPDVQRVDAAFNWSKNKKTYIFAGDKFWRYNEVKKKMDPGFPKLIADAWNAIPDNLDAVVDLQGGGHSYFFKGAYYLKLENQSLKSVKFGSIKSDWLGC
T7 sequence (P78536 whole entry, the tested form may be a part): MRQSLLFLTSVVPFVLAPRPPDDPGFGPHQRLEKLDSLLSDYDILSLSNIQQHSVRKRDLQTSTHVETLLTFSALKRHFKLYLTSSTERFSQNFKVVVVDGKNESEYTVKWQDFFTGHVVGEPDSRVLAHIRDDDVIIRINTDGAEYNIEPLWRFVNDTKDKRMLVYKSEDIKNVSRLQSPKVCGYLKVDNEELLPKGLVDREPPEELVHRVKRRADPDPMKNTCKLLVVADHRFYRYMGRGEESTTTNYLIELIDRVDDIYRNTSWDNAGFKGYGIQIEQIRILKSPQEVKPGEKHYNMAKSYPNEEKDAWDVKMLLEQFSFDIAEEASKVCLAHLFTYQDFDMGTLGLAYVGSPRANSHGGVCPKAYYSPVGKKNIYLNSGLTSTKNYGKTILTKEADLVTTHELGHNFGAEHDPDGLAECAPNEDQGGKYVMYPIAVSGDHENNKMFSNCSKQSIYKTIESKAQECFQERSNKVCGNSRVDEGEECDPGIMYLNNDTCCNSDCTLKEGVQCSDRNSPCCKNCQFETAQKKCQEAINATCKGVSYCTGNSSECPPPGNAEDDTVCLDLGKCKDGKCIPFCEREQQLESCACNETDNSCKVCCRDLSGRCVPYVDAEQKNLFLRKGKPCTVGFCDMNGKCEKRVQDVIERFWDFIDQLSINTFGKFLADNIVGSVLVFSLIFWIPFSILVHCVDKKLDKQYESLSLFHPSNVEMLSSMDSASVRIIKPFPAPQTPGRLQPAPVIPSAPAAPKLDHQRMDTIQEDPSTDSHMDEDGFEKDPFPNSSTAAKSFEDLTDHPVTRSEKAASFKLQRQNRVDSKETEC
T4 sequence (P14780 whole entry): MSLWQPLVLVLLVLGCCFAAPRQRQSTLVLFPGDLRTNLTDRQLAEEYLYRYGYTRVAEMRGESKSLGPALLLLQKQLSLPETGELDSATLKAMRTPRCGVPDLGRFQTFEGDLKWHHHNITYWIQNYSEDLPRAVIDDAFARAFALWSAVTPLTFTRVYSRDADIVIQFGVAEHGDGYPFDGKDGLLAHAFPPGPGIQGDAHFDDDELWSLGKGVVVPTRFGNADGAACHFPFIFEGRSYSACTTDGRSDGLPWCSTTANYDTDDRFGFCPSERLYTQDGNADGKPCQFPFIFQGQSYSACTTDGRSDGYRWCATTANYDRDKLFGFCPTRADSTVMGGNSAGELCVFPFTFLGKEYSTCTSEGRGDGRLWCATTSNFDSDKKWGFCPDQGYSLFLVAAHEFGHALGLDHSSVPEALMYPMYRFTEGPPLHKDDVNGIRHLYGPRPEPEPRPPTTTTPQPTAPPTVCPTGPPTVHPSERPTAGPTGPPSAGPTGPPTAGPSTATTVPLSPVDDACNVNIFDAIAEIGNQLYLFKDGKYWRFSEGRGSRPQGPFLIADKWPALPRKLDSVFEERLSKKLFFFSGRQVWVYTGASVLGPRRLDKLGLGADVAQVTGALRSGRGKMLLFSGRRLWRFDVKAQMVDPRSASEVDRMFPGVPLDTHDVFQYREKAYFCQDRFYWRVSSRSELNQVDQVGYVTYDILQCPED

`O=C(CN(Cc1cccc(C(=O)O)c1)S(=O)(=O)c1ccc(C(=O)O)cc1)NO` was tested, and the IC50 (Meprin A subunit beta [1]) was 320 nM.
Molecule `O=C(CNS(=O)(=O)c1ccc(Cl)cc1)NO` has an IC50 (Meprin A subunit beta [1]) of 17200 nM.
For `O=C(Nc1cc(C(=O)Nc2ccc(S(=O)(=O)O)cc2S(=O)(=O)O)cc(C(=O)Nc2ccc(S(=O)(=O)O)cc2S(=O)(=O)O)c1)Nc1cc(C(=O)Nc2ccc(S(=O)(=O)O)cc2S(=O)(=O)O)cc(C(=O)Nc2ccc(S(=O)(=O)O)cc2S(=O)(=O)O)c1`, the Ki (Meprin A subunit beta [2]) was 22 nM.
Molecule `COc1ccc(S(=O)(=O)N(CC(=O)NO)Cc2cccc(C(=O)O)c2)cc1` has an IC50 [3] of 11700 nM, a Ratio IC50 (Homo sapiens [4]) of 60 and an IC50 (Collagenase 3 [5]) of 0.3 nM. It also gave an IC50 [6] of 50 nM, an IC50 [7] of 2 nM and a Ratio IC50 (Homo sapiens [8]) of over 100. For the same molecule, the IC50 (Meprin A subunit alpha) was 3290 nM and the IC50 [9] was 1240 nM.
`O=C(CCNS(=O)(=O)c1cccc(C(=O)O)c1)NO` was tested, and the IC50 (Meprin A subunit beta [1]) was 220 nM.
With `O=C(CCNS(=O)(=O)c1cc(Cl)c(O)c(Cl)c1)NO` the IC50 (Meprin A subunit beta [1]) was 400 nM.
For `COc1ccc(S(=O)(=O)N(CCc2ccccc2)CC(=O)NO)cc1`, the IC50 (Meprin A subunit beta [1]) was 42900 nM.
`CCCCC[C@H](CC(=O)NO)C(=O)N[C@H](C(=O)N1CCC[C@H]1CO)C(C)C` [ACTINONIN] gave a Ki (Meprin A subunit beta [10]) of 2000 nM.
With `COc1ccc(S(=O)(=O)N(C)CC(=O)NO)cc1` the IC50 (Meprin A subunit beta [1]) was 32500 nM.
With `O=C(CN(Cc1cccc(C(=O)O)c1)S(=O)(=O)c1cccc(C(=O)O)c1)NO` the “inhibition (INH)” value [11] was “Not Active”, the Ratio IC50 (Homo sapiens [12]) was over 100 and the Ratio IC50 (Homo sapiens [4]) was 500. The “inhibition (INH)” value (Collagenase 3 [13]) was “Not Active”, the “inhibition (INH)” value [14] was “Not Active” and the “inhibition (INH)” value [15] was “Not Active”. For the same molecule, the Ratio IC50 (Homo sapiens [8]) was over 100, the IC50 (Meprin A subunit alpha) was 27400 nM and the “inhibition (INH)” value [16] was “Not Active”.
For `O=C(CCNS(=O)(=O)c1ccc(C(=O)O)cc1)NO`, the IC50 (Meprin A subunit beta [1]) was 340 nM.
Work on `O=C(CNS(=O)(=O)c1cccc(C(=O)O)c1)NO` yielded an IC50 (Meprin A subunit beta [1]) of 310 nM.
For `O=C(O)Cc1ccc(S(=O)(=O)NCC(=O)NO)cc1`, the IC50 (Meprin A subunit beta [1]) was 5030 nM.
Molecule `COc1ccc(S(=O)(=O)N(CC(=O)NO)Cc2ccc(C(=O)O)cc2)cc1` has an IC50 (Meprin A subunit beta [1]) of 980 nM.
With `O=C(CNS(=O)(=O)c1cc(Cl)c(O)c(Cl)c1)NO` the IC50 (Meprin A subunit beta [1]) was 430 nM.
